Results as given in patent publication US11890266B2 (University of Canberra, priority 2016, dated 2024).

Legend:
[1] = system: form-deprivation myopia (FDM) in chick eyes fitted with a translucent diffuser; assay: Form-deprivation myopia (FDM) induced by translucent diffuser, five day treatment; axial length and refraction; assay type: in vivo, White Cockerel chickens; conditions: Example 15, five days; for effect of intravitreal injection versus topical administration on refraction and axial elongation: daily administration; for axial elongation in comparison with animals fitted with a translucent diffuser only (G2) / myopic shift in refraction in comparison with animals fitted with a translucent diffuser only (G2): ADTN 1 mM, atropine 2 mM, pirenzepine 16 mM
Protocol: For the drug treatments, the compositions were administered under light isoflurane anesthesia using intravitreal injection or topical administration.
Intravitreal injection was performed as follows: Using a 30 gauge needle attached to a Hamilton syringe, 10 μL (0.01 mL) of the test composition was injected into the vitreous chamber of the eye once daily.
Topical administration was performed as follows: Two drops of 40 μL (two drops of 0.04 mL, or 0.08 mL total) of the test composition was applied to the corneal surface of the eye using an eye drop dispenser. Drops were applied to the chicks twice daily.
To determine changes in the rate of eye growth and the development of myopia, changes in axial length and refraction were assessed. Myopia is associated with excessive elongation of the eye in the axial direction relative to normal growth rates. Such excessive axial elongation leads to a relative myopic change in refraction. Axial length and refraction were measured using A-scan ultrasonography (Biometer AL-100; Tomey Corporation, Nagoya, Japan) and automated infrared photo-retinoscopy respectively. Statistical analysis of changes in both refraction and axial length between groups involved a one-way ANOVA test followed by a Student's T-test with Bonferroni correction. All data are presented as the mean±the […] of the mean (SEM). […]
70 male White Cockerel chickens were randomly assigned to one of 14 treatment groups as defined below (n=5 per group) and were treated for a five day period. G1-G14 represent the labelling system used in FIGS. 11 and 12.
ADTN compositions were prepared by dissolving ADTN in a solution containing 0.1% ascorbic acid in 1×PBS to a final concentration of 1 mM (0.03% w/v), and adjusting the pH to 7. Atropine and pirenzepine compositions were prepared by dissolving atropine (in the form of atropine sulfate salt monohydrate) or pirenzepine (in the form of pirenzepine dihydrochloride) in distilled water to a final concentration of 2 mM (0.14% w/v) and 16 mM (0.7% w/v), respectively, and adjusting the pH to 7.
Administration of test compositions and measurement of ocular parameters was performed in accordance with that described in Example 4.

[2] = system: form-deprivation myopia (FDM) in chick eyes fitted with a translucent diffuser; assay: Safety and efficacy of topical levodopa in form-deprivation myopia over a four week period; assay type: in vivo, White Cockerel chickens; conditions: topical 0.3% w/v (15 mM) levodopa composition of Example 1, twice daily, four weeks
Protocol: Male White Cockerel chickens were kept under normal laboratory light (500 lux, fluorescent lights) on a 12:12 hour light:dark cycle with lights on at 9:30 am and off at 9:30 pm. In all chicks, left eyes were treated experimentally while right eyes remained untreated to serve as a contralateral control. Chicks were randomly assigned to one of four groups (n=6 for each group) and treated over the four week period under the following experimental conditions: • 1. […] Form-deprivation myopia (FDM): Chicks were fitted with a translucent diffuser over their left eye to induce FDM, receiving no further treatment • 3.
Administration of the test compositions was performed in accordance with that described in Example 4.
To determine changes in the rate of eye growth and the development of myopia, axial length and refraction were measured using A-scan ultrasonography (Biometer AL-100; Tomey Corporation, Nagoya, Japan) and automated infrared photo-retinoscopy, respectively. Ocular measurements (axial length and refraction) were made on day one (prior to the commencement of experimentation) and every seven days for four weeks.
A multivariate analysis of variance (MANOVA) with repeated measures design was used to compare the effect of the different treatment regimens over time.

[3] = daily topical administration, levodopa 0.03% w/v in combinations

Structure (SMILES) | effect of intravitreal injection versus topical administration on refraction and axial elongation [1] | axial elongation in comparison with animals fitted with a translucent diffuser only (G2) ([1]; daily intravitreal injection) | myopic shift in refraction in comparison with animals fitted with a translucent diffuser only (G2) ([1]; daily intravitreal injection) | axial elongation in comparison with animals fitted with a translucent diffuser only (G2) [1, 3] | myopic shift in refraction in comparison with animals fitted with a translucent diffuser only (G2) [1, 3] | axial elongation in comparison to diffusers in the absence of levodopa treatment [2]
NC1CCc2cc(O)c(O)cc2C1 (stereo not shown) [ADTN, 2-amino-6,7-dihydroxy-1,2,3,4-tetrahydronaphthalene] | intravitreal injection having a greater effect than topical administration | decreased axial elongation | significantly inhibited the myopic shift in refraction | decreased axial elongation | significantly inhibited the myopic shift in refraction | –
CN1[C@@H]2CC[C@H]1C[C@@H](OC(=O)C(CO)c1ccccc1)C2 (stereo partly shown) [atropine] | intravitreal injection having a greater effect than topical administration | decreased axial elongation | significantly inhibited the myopic shift in refraction | decreased axial elongation | significantly inhibited the myopic shift in refraction | –
N[C@@H](Cc1ccc(O)c(O)c1)C(=O)O [levodopa] | – | – | – | – | – | decreased axial elongation
CN1CCN(CC(=O)N2c3ccccc3C(=O)Nc3cccnc32)CC1 [pirenzepine] | greater when intravitreally administered | decreased axial elongation | significantly inhibited myopic shifts in refractive development | decreased axial elongation | significantly inhibited myopic shifts in refractive development | –
